The values below are quoted from earlier work in PMC5848258 (Clinical Infectious Diseases: An Official Publication of …, 2017).

Molecules are shown by their SMILES. Where only a bound is given, the exact number is not on record here.

For the data set the following is noted: cited from earlier work.

Regarding `C=C(C)[C@@H]1CC[C@]2(C(=O)O)CC[C@]3(C)[C@H](CC[C@@H]4[C@@]5(C)CC[C@H](OC(=O)CC(C)(C)C(=O)O)C(C)(C)[C@@H]5CC[C@]43C)[C@@H]12` [BVM, 3-o-(3’,3’-dimethylsuccinyl)betulinic acid, reference compound], the Protein binding is above 99%.
